Like-named read-outs stand apart in the source and are kept apart here.
Tests used:
Assay in all cases: MIC, micro-dilution broth method (CLSI)
Format in all cases: cell-based
Klebsiella pneumoniae = tested on: Klebsiella pneumoniae
Escherichia coli = tested on: Escherichia coli
Enterobacter cloacae = tested on: Enterobacter cloacae

Measured: MIC

Cc1cc(-c2nc(C(C)(C)C)[nH]c2-c2ccc3c(c2)OCCO3)ccn1 [Compound 1, 4-(2-(tert-butyl)-5-(2,3-dihydrobenzo[b][1,4]dioxin-6-yl)-1H-imidazol-4-yl)-2-methylpyridine]
> 128 µg/mL: Klebsiella pneumoniae; Klebsiella pneumoniae, ATCCBAA1705, K. pneumoniae ATCC BAA-1705, read-out: MIC | Enterobacter cloacae; Enterobacter cloacae, ATCC29893, E. cloacae ATCC 29893, read-out: MIC
32 µg/mL: Klebsiella pneumoniae; Klebsiella pneumoniae, K. pneumoniae AR-0040, read-out: MIC | Enterobacter cloacae; Enterobacter cloacae, ATCCBAA2468, E. cloacae ATCC BAA-2468, read-out: MIC
64 µg/mL: Enterobacter cloacae; Enterobacter cloacae, E. cloacae AR-0163, read-out: MIC
16 µg/mL: Klebsiella pneumoniae; Klebsiella pneumoniae, ATCC27736, K. pneumoniae ATCC 27736, read-out: MIC | Escherichia coli; Escherichia coli, E. coli AR-0549, read-out: MIC
8 µg/mL: Escherichia coli; Escherichia coli, ATCC25922, E. coli ATCC 25922, read-out: MIC
0.03 µg/mL: Escherichia coli; Escherichia coli, E. coli ΔtolC JW5503 (efflux-deficient)
0.25 µg/mL: Escherichia coli; Escherichia coli, E. coli ΔrfaC JW3596 (permeability mutant)

Colistin
8 µg/mL: Klebsiella pneumoniae; K. pneumoniae AR-0040 | Escherichia coli; E. coli AR0493 | Escherichia coli; E. coli AR0494 | Escherichia coli; E. coli AR-0349 (colistin-resistant clinical isolate) | Enterobacter cloacae; E. cloacae AR0073
<0.25 µg/mL: Klebsiella pneumoniae; K. pneumoniae AR0098 | Klebsiella pneumoniae; K. pneumoniae AR0107 | Klebsiella pneumoniae; K. pneumoniae AR0347 | Klebsiella pneumoniae; K. pneumoniae AR0550
0.25 µg/mL: Escherichia coli; E. coli AR0114 | Escherichia coli; E. coli AR0348 | Escherichia coli; E. coli AR-0549 | Escherichia coli; E. coli ATCC BAA-2340 | Escherichia coli; E. coli ATCC BAA-2469 | Escherichia coli; E. coli ATCC BAA-2471 | Escherichia coli; E. coli ELZ 4004 | Escherichia coli; E. coli ELZ 4017 | Escherichia coli; E. coli ELZ 4042 | Escherichia coli; E. coli ELZ 4072 | Escherichia coli; E. coli ELZ 4081 | Escherichia coli; E. coli ELZ 4139 | Escherichia coli; E. coli ELZ 4239 | Escherichia coli; E. coli ELZ 4277 | Escherichia coli; E. coli ELZ 4346 | Enterobacter cloacae; E. cloacae AR0050 | Enterobacter cloacae; E. cloacae AR0544 | Enterobacter cloacae; E. cloacae ATCC BAA-2468
>8 µg/mL: Klebsiella pneumoniae; K. pneumoniae AR0109 | Klebsiella pneumoniae; K. pneumoniae AR0542
4 µg/mL: Klebsiella pneumoniae; K. pneumoniae AR0046 | Klebsiella pneumoniae; K. pneumoniae AR0047 | Klebsiella pneumoniae; K. pneumoniae AR0087 | Klebsiella pneumoniae; K. pneumoniae AR0106 | Escherichia coli; E. coli AR0346 | Escherichia coli; E. coli AR0350 | Escherichia coli; E. coli AR0495
16 µg/mL: Enterobacter cloacae; E. cloacae AR-0163
>4 µg/mL: Klebsiella pneumoniae; K. pneumoniae AR0125
1 µg/mL: Klebsiella pneumoniae; K. pneumoniae AR0066 | Klebsiella pneumoniae; K. pneumoniae AR0117 | Klebsiella pneumoniae; K. pneumoniae AR0141 | Klebsiella pneumoniae; K. pneumoniae AR0143 | Klebsiella pneumoniae; K. pneumoniae AR0148 | Klebsiella pneumoniae; K. pneumoniae AR0160 | Escherichia coli; E. coli AR0055 | Escherichia coli; E. coli AR0067 | Escherichia coli; E. coli AR0137 | Enterobacter cloacae; E. cloacae AR0072 | Enterobacter cloacae; E. cloacae AR0132
2 µg/mL: Klebsiella pneumoniae; K. pneumoniae AR0138 | Klebsiella pneumoniae; K. pneumoniae AR0139
0.5 µg/mL: Klebsiella pneumoniae; K. pneumoniae AR0034 | Klebsiella pneumoniae; K. pneumoniae AR0039 | Klebsiella pneumoniae; K. pneumoniae AR0041 | Klebsiella pneumoniae; K. pneumoniae AR0042 | Klebsiella pneumoniae; K. pneumoniae AR0043 | Klebsiella pneumoniae; K. pneumoniae AR0044 | Klebsiella pneumoniae; K. pneumoniae AR0049 | Klebsiella pneumoniae; K. pneumoniae AR0068 | Klebsiella pneumoniae; K. pneumoniae AR0075 | Klebsiella pneumoniae; K. pneumoniae AR0076 | Klebsiella pneumoniae; K. pneumoniae AR0079 | Klebsiella pneumoniae; K. pneumoniae AR0080 | Klebsiella pneumoniae; K. pneumoniae AR0112 | Klebsiella pneumoniae; K. pneumoniae AR0113 | Klebsiella pneumoniae; K. pneumoniae AR0115 | Klebsiella pneumoniae; K. pneumoniae AR0120 | Klebsiella pneumoniae; K. pneumoniae AR0126 | Klebsiella pneumoniae; K. pneumoniae AR0129 | Klebsiella pneumoniae; K. pneumoniae AR0135 | Klebsiella pneumoniae; K. pneumoniae AR0140 | Klebsiella pneumoniae; K. pneumoniae AR0142 | Klebsiella pneumoniae; K. pneumoniae AR0145 | Klebsiella pneumoniae; K. pneumoniae AR0146 | Klebsiella pneumoniae; K. pneumoniae AR0152 | Klebsiella pneumoniae; K. pneumoniae AR0153 | Klebsiella pneumoniae; K. pneumoniae AR0158 | Klebsiella pneumoniae; K. pneumoniae AR0548 | Klebsiella pneumoniae; K. pneumoniae AR0552 | Klebsiella pneumoniae; K. pneumoniae AR0553 | Klebsiella pneumoniae; K. pneumoniae AR0554 | Klebsiella pneumoniae; K. pneumoniae AR0555 | Escherichia coli; E. coli AR0048 | Escherichia coli; E. coli AR0058 | Escherichia coli; E. coli AR0061 | Escherichia coli; E. coli AR0069 | Escherichia coli; E. coli AR0077 | Escherichia coli; E. coli AR0081 | Escherichia coli; E. coli AR0084 | Escherichia coli; E. coli AR0085 | Escherichia coli; E. coli AR0086 | Escherichia coli; E. coli AR0089 | Escherichia coli; E. coli AR0104 | Escherichia coli; E. coli AR0118 | Escherichia coli; E. coli AR0119 | Escherichia coli; E. coli AR0128 | Escherichia coli; E. coli AR0149 | Escherichia coli; E. coli AR0150 | Escherichia coli; E. coli AR0151 | Escherichia coli; E. coli AR0162 | Escherichia coli; E. coli AR0541 | Escherichia coli; E. coli AR0543 | Escherichia coli; E. coli AR0546 | Escherichia coli; E. coli AR0551 | Escherichia coli; E. coli AR0559 | Enterobacter cloacae; E. cloacae AR0032 | Enterobacter cloacae; E. cloacae AR0038 | Enterobacter cloacae; E. cloacae AR0053 | Enterobacter cloacae; E. cloacae AR0060 | Enterobacter cloacae; E. cloacae AR0065 | Enterobacter cloacae; E. cloacae AR0093 | Enterobacter cloacae; E. cloacae AR0136 | Enterobacter cloacae; E. cloacae AR0154 | Enterobacter cloacae; E. cloacae AR0164 | Enterobacter cloacae; E. cloacae AR0545 | Enterobacter cloacae; E. cloacae ATCC BAA-2341

From US20250051300A1, “GRAM-NEGATIVE SPECIFIC ANTIBIOTICS SPARING EFFECT ON GUT MICROBIOME” (THE BOARD OF TRUSTEES OF THE UNIVERSITY OF ILLINOIS, priority 2021, published 2025)
